Tests used:
[1] = system: normal NK cells expanded with K562-aAPC; assay: percent inhibition of viability; higher = more inhibition; conditions: 72 h, IL-2 2.5 ng/mL
Description: (§1)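 Drug sensitivity and resistance testing on K562-aAPC-expanded normal NK cells: 5 concentrations (10-fold steps over a 10,000-fold range), 72 h at 37 °C, viability by CellTiter-Glo normalised to DMSO and benzethonium chloride controls; DSS from the fitted curve.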

[2] = system: normal NK cells expanded with K562-aAPC; assay: drug sensitivity score (DSS) (DSS units); higher = more sensitive; extreme values may be limits of the assay; conditions: 72 h; IL-2 2.5 ng/mL
Description: as §1

NK-YS (IL-2 2.5 ng/mL) [3] = assay: percent inhibition of viability; higher = more inhibition; conditions: 72 h
KHYG-1 (IL-2 2.5 ng/mL) [4] = assay: as above; conditions: 72 h
[5] = system: normal primary NK cells, pool 3 (3 donors) (IL-2 2.5 ng/mL); assay: as above; conditions: 72 h
KAI3 (IL-2 2.5 ng/mL) [6] = assay: as above; conditions: 72 h
NK-92 (IL-2 2.5 ng/mL) [7] = assay: as above; conditions: 72 h
[8] = system: normal primary NK cells, pool 1 (3 donors), resting (IL-2 0 ng/mL); assay: as above; conditions: 72 h
[9] = system: normal primary NK cells, pool 1 (3 donors) (IL-2 2.5 ng/mL); assay: as above; conditions: 72 h
NKL (IL-2 2.5 ng/mL) [10] = assay: as above; conditions: 72 h
YT (IL-2 2.5 ng/mL) [11] = assay: as above; conditions: 72 h
[12] = system: normal primary NK cells, pool 2 (3 donors) (IL-2 2.5 ng/mL); assay: as above; conditions: 72 h
IMC-1 (IL-2 20 ng/mL) [13] = assay: as above; conditions: 72 h
DERL-7 (IL-2 2.5 ng/mL) [14] = assay: as above; conditions: 72 h
SNK-6 (IL-2 2.5 ng/mL) [15] = assay: as above; conditions: 72 h
NK-YS (IL-2 2.5 ng/mL) [16] = assay: drug sensitivity score (DSS) (DSS units); higher = more sensitive; extreme values may be limits of the assay; conditions: 72 h
KHYG-1 (IL-2 2.5 ng/mL) [17] = assay: as above; conditions: 72 h
[18] = system: normal primary NK cells, pool 3 (3 donors) (IL-2 2.5 ng/mL); assay: as above; conditions: 72 h
KAI3 (IL-2 2.5 ng/mL) [19] = assay: as above; conditions: 72 h
NK-92 (IL-2 2.5 ng/mL) [20] = assay: as above; conditions: 72 h
[21] = system: normal primary NK cells, pool 1 (3 donors), resting (IL-2 0 ng/mL); assay: as above; conditions: 72 h
[22] = system: normal primary NK cells, pool 1 (3 donors) (IL-2 2.5 ng/mL); assay: as above; conditions: 72 h
NKL (IL-2 2.5 ng/mL) [23] = assay: as above; conditions: 72 h
YT (IL-2 2.5 ng/mL) [24] = assay: as above; conditions: 72 h
[25] = system: normal primary NK cells, pool 2 (3 donors) (IL-2 2.5 ng/mL); assay: as above; conditions: 72 h
IMC-1 (IL-2 20 ng/mL) [26] = assay: as above; conditions: 72 h
DERL-7 (IL-2 2.5 ng/mL) [27] = assay: as above; conditions: 72 h
SNK-6 (IL-2 2.5 ng/mL) [28] = assay: as above; conditions: 72 h

CCn1c(=O)c(-c2cc[nH]n2)cc2c(C)nc(N)nc21 [Voxtalisib] (max concentration tested 10000 nM)
percent inhibition of viability [%]
Conditions | 1 nM | 10 nM | 100 nM | 1000 nM | 10000 nM
DERL-7 (IL-2 2.5 ng/mL) [14] | 5.41 | 4.21 | 13.1 | 64 | 90.5
IMC-1 (IL-2 20 ng/mL) [13] | -10.6 | -2.45 | -10.8 | -9.7 | 16.3
KAI3 (IL-2 2.5 ng/mL) [6] | -4.78 | -4.19 | 6.21 | 42.3 | 75.8
KHYG-1 (IL-2 2.5 ng/mL) [4] | -9 | -5.41 | -5.59 | 17.8 | 79.4
NK-92 (IL-2 2.5 ng/mL) [7] | -8.65 | 11.8 | 10.3 | 47.6 | 82.8
NK-YS (IL-2 2.5 ng/mL) [3] | -5.07 | 0.15 | 3.01 | 23.8 | 69.5
NKL (IL-2 2.5 ng/mL) [10] | -8.64 | -12.9 | -1.2 | 46.7 | 80.6
SNK-6 (IL-2 2.5 ng/mL) [15] | -15.8 | -23.8 | -25.5 | -0.25 | 72.2
YT (IL-2 2.5 ng/mL) [11] | -4.53 | -3.54 | 0.98 | 38.7 | 88.6
[1] | 0.41 | -5.61 | 9.15 | 33.9 | 60.2
[5] | -5.2 | -0.71 | 13.1 | 17.8 | 35.1
[8] | -7.13 | 11.3 | 7.69 | 23 | 43.4
[9] | -5.05 | 2.34 | 10.6 | 28.2 | 49.9
[12] | -10.4 | 2.91 | 12.1 | 20.6 | 40.3

Conditions | drug sensitivity score
DERL-7 (IL-2 2.5 ng/mL) [27] | 13.8
IMC-1 (IL-2 20 ng/mL) [26] | 0.15
KAI3 (IL-2 2.5 ng/mL) [19] | 9.29
KHYG-1 (IL-2 2.5 ng/mL) [17] | 7.22
NK-92 (IL-2 2.5 ng/mL) [20] | 10.7
NK-YS (IL-2 2.5 ng/mL) [16] | 7.02
NKL (IL-2 2.5 ng/mL) [23] | 10.1
SNK-6 (IL-2 2.5 ng/mL) [28] | 3.96
YT (IL-2 2.5 ng/mL) [24] | 9.92
[2] | 7.48
[18] | 4.03
[21] | 5.05
[22] | 6.3
[25] | 4.74
